Test results: patent US12521425B2, “Method of liver cancer treatment with safranal-based formulations” (priority 2019, dated 2026)
Where two headings read alike, the source gives them in different places.

Columns and labels:
[1] = system: HepG2 cells; assay: SRB assay, cytotoxicity of topotecan ± safranal; assay type: cell-based; conditions: for IC50: Homo sapiens
Experimental: SRB assay. The effect of safranal on the cytotoxicity of the topoisomerase 1 inhibitor topotecan was tested using the sulforhodamine-B (SRB) assay as previously described. Exponentially growing HepG2 cells were seeded in 96-well plates at cell density of 1×10^4 cells per well. […] At the end of the incubation period, cells were fixed with 50% trichloroacetic acid (TCA) for 1 hours at 4° C. followed by washing, staining with SRB for 30 min followed by washing and solubilization of the stain with 10 mM Tris base (pH 10.5). The optical density (OD) at each well was measured spectrophotometrically at 564 nm with an ELISA microplate reader (Metertech. S960, USA). The IC50 values were calculated using sigmoidal concentration-response curve fitting models (Graph Pad, Prizm software).

[2] = system: DEN-induced hepatic neoplasia; assay: Serum ALT and AST in DEN-induced HCC model; assay type: in vivo, male Wistar rats; conditions: HCC rats, oral gavage 5 days a week, weeks 17-19, safranal 200 mg/kg, sorafenib 10 mg/kg, mean±SEM, n=6
Experimental: A modified version of the protocol described by DePeralta et al. (2016) and Schiffer et al. (2005) was used here to establish the hepatocarcinogenesis model.
On the first 15 weeks, the control PBS group was treated with 1×PBS, whereas the experimental groups were given an intraperitoneal injection (IP) of 50 mg/kg of diethylnitrosoamine (DEN, Sigma Aldrich), a widely used chemical for inducing cancer, once a week. DEN was diluted with 1×PBS. Following a one-week break (week 16), the next three weeks (weeks 17 to 19) of treatment commenced. All drugs were administrated by oral gavage. All doses were chosen according to literature (Alsaied et al., 2014; Karafakioglu et al., 2017). For the HCC+sorafenib group, the drug (Carbosynth Limited) was administered at a dose of 10 mg/kg, five days a week. For the HCC+safranal group, the drug (Sigma Aldrich) was administered at a dose of 200 mg/kg, five days a week. For the HCC+safranal+sorafenib group, the drugs were administered at a dose of 200 mg/kg safranal+10 mg/kg sorafenib, five days a week. Both safranal and sorafenib were diluted with 1×PBS and drops of Tween 80. […] After 24-hours from last treatment, the rats were euthanized by mild diethyl ether and dissected in equal conditions. Blood and whole liver were collected.
Rats were euthanized then blood was collected by decapitation and processed for later investigation. The blood was collected in collection tubes (BD Vacutainer) and serum was separated by centrifugation at 1200× g for 10 minutes. Serum was collected and flash frozen immediately then stored at −80° C. for further analysis.
Alanine Transaminase (ALT), and Aspartate Aminotransferase (AST) assays were performed using commercial kits (Abcam), according to the protocol provided. ALT and AST activities were measured spectrophotometrically using Epoch by BioTek.

SMILES | sensitization factor ([1]; HepG2, incubation with safranal for 24 or 48 h before topotecan) | IC50 ([1]; HepG2, HepG2, SRB, topotecan 48 h alone or after safranal 500 μM pre-incubation, read-out: IC50 of topotecan ± safranal) | IC50 ([1]; HepG2, HepG2, incubation with safranal for 24 or 48 h before topotecan, read-out: topotecan IC50) | IC50 ([1]; HepG2, HepG2, topotecan alone, read-out: topotecan IC50) | ALT [2] | AST [2]
CC[C@@]1(O)C(=O)OCc2c1cc1n(c2=O)Cc2cc3c(CN(C)C)c(O)ccc3nc2-1 [Topotecan, topotecan] | 73 | 118 nM | 1.6 nM | 118 nM |  | 
CNC(=O)c1cc(Oc2ccc(NC(=O)Nc3ccc(Cl)c(C(F)(F)F)c3)cc2)ccn1 [sorafenib, reference compound] |  |  |  |  | 13.42 ± 1.12 mU/ml | 11.14 ± 0.62 mU/ml
